Data as given in US20040176431A1, “Antiproliferative 2-(sulfo-phenyl)-aminothiazole derivatives and pharmaceutical compositions, and methods for their use” (Pfizer, Inc., priority 2003, published 2004).

Legend:
HCT-116 cells = test: Inhibition of cell growth (MTT tetrazolium salt assay); assay type: cell-based; conditions: Homo sapiens; for IC50: read-out: HCT116 IC50; for IC90: read-out: HCT116 IC90
Experimental: Inhibition of cell growth was measured using the tetrazolium salt assay, which is based on the ability of viable cells to reduce 3-(4,5-dimethylthiazol-2-yl)-2,5-[2H]-diphenyltetrazolium bromide (MTT) to formazan (Mosmann, J. Immunol. Meth., 65, 55-63 (1983)). The water-insoluble purple formazan product was then detected spectrophotometrically. HCT-116 cells were grown in 96-well plates. Cells were plated in the appropriate medium at a volume of 135 μl/well in either McCoy's 5A Medium. Plates were incubated for four hours before addition of inhibitor compounds. Different concentrations of inhibitor compounds were added in 0.5% (v/v) dimethylsulfoxide (15 μL/well), and cells were incubated at 37° C. (5% CO2) for four to six days (depending on cell type). At the end of the incubation, MTT was added to a final concentration of 0.2 mg/mL, and cells were incubated for 4 hours more at 37° C. After centrifugation of the plates and removal of medium, the absorbance of the formazan (solubilized in dimethylsulfoxide) was measured at 540 nm. […] All results were compared to control cells treated only with 0.5% (v/v) dimethylsulfoxide.

CDK4/cyclin D3 = biological target: T1, CDK4/cyclin D3 (Homo sapiens, UniProt P11802); test: Inhibition of CDK4/Cyclin D retinoblastoma kinase activity; assay type: biochemical; conditions: for % Inhib CDK4/D @ 0.1 μM / inhibition at 0.1 µM: test compound at 0.1 μM; for % Inhib CDK4/D @ 1 μM / inhibition at 1 µM: test compound at 1 μM (head line shifted: 'mM' printed beside 'Structure'); for % Inhib CDK4/D @ 0.03 / inhibition at 0.03 µM: test compound at 0.03 (unit cell empty, head line shifted; μM); for inhibition at 0.1 µM: read-out: % Inhib CDK4/D @ 0.1 μM; for inhibition at 1 µM: read-out: % Inhib CDK4/D @ 1 μM; for inhibition at 0.03 µM: read-out: % Inhib CDK4/D @ 0.03; for Ki: apparent Ki, Rb fragment substrate;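 on % Inhib CDK4/D @ 1 μM: relative to DMSO control wells without compound minus no-enzyme background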
T1 construct: made in house; host or cells: insect cells (baculovirus co-infection)
T1 sequence (P11802 whole entry, the tested form may be a part): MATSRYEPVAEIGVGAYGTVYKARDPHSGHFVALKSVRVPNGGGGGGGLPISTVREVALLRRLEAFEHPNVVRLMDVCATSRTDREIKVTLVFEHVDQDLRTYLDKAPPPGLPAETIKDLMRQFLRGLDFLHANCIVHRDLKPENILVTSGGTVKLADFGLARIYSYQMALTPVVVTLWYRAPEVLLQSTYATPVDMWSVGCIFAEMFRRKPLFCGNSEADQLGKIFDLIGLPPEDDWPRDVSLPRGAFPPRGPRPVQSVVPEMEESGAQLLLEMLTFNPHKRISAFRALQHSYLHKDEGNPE
T1 sequence (P30281 1-264 partner limits assumed): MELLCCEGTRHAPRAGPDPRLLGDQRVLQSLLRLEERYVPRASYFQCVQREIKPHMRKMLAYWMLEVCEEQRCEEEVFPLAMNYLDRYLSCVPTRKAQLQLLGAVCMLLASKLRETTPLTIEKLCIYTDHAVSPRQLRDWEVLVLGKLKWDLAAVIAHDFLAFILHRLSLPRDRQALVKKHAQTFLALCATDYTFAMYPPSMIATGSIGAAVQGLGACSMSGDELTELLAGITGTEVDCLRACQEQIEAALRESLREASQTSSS
In short: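 Apparent Ki derived by fitting activity at varied inhibitor concentrations to competitive (or competitive tight-binding) inhibition equations, background without enzyme subtracted. Radiometric filter-binding read-out of Rb(386-928) phosphorylation by 5 nM CDK4/cyclin D3(1-264); 25 μM ATP, pH 7.4, 2% DMSO, 30° C., 20 min, extended to 60 min for tight binders.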

## CNS(=O)(=O)c1ccc(Nc2nc(N)c(C(=O)c3c(F)cccc3F)s2)cc1 [C(108)*, reference compound]
HCT-116 cells
  IC50: 400 nM
  IC90: 1400 nM

## CN(C)S(=O)(=O)c1ccc(Nc2nc(N)c(C(=O)c3c(F)cccc3F)s2)cc1 [C(109)*, reference compound]
HCT-116 cells
  IC50: 1600 nM
  IC90: 3000 nM

## Nc1nc(Nc2ccc(S(N)(=O)=O)cc2)sc1C(=O)c1c(F)cc(F)cc1F [C(115)*, reference compound]
HCT-116 cells
  IC50: 980 nM
  IC90: 2100 nM

## Nc1nc(Nc2ccc(S(=O)(=O)CC3CO3)cc2)sc1C(=O)c1c(Cl)cccc1Cl (centres unmarked) [DD(212)]
CDK4/cyclin D3
  % Inhib CDK4/D @ 0.1 μM: 17%
  % Inhib CDK4/D @ 1 μM: −14%
  % Inhib CDK4/D @ 0.03: −16%

## CC(C)CCS(=O)(=O)c1ccc(Nc2nc(N)c(C(=O)c3c(Cl)cccc3Cl)s2)cc1 [DD(213)]
CDK4/cyclin D3
  % Inhib CDK4/D @ 0.1 μM: 14%
  % Inhib CDK4/D @ 1 μM: −11%
  % Inhib CDK4/D @ 0.03: −22%

## COCCS(=O)(=O)c1ccc(Nc2nc(N)c(C(=O)c3c(Cl)cccc3Cl)s2)cc1 [DD(214)]
CDK4/cyclin D3
  % Inhib CDK4/D @ 0.1 μM: 29%
  % Inhib CDK4/D @ 1 μM: 60.6%
  % Inhib CDK4/D @ 0.03: −10%

## Nc1nc(Nc2ccc(S(=O)(=O)CC(=O)Nc3ccccc3)cc2)sc1C(=O)c1c(Cl)cccc1Cl [DD(215)]
CDK4/cyclin D3
  % Inhib CDK4/D @ 0.1 μM: 25%
  % Inhib CDK4/D @ 1 μM: 4.9%
  % Inhib CDK4/D @ 0.03: −15%

## Nc1nc(Nc2ccc(S(=O)(=O)CC3CC3)cc2)sc1C(=O)c1c(Cl)cccc1Cl [DD(216)]
CDK4/cyclin D3
  % Inhib CDK4/D @ 0.1 μM: 20%
  % Inhib CDK4/D @ 1 μM: 47.1%
  % Inhib CDK4/D @ 0.03: 12%

## COc1cccc(CS(=O)(=O)c2ccc(Nc3nc(N)c(C(=O)c4c(Cl)cccc4Cl)s3)cc2)c1 [DD(217)]
CDK4/cyclin D3
  % Inhib CDK4/D @ 0.1 μM: 39%
  % Inhib CDK4/D @ 1 μM: −21%
  % Inhib CDK4/D @ 0.03: −8%

## Nc1nc(Nc2ccc(S(=O)(=O)CC3CCCO3)cc2)sc1C(=O)c1c(Cl)cccc1Cl (centres unmarked) [DD(218)]
CDK4/cyclin D3
  % Inhib CDK4/D @ 0.1 μM: 33%
  % Inhib CDK4/D @ 1 μM: 23.4%
  % Inhib CDK4/D @ 0.03: −12%

## CN1CCCC1CCS(=O)(=O)c1ccc(Nc2nc(N)c(C(=O)c3c(Cl)cccc3Cl)s2)cc1 (centres unmarked) [DD(219)]
CDK4/cyclin D3
  % Inhib CDK4/D @ 0.1 μM: 22%
  % Inhib CDK4/D @ 1 μM: 19.5%
  % Inhib CDK4/D @ 0.03: 3.3%

## CC1(CS(=O)(=O)c2ccc(Nc3nc(N)c(C(=O)c4c(Cl)cccc4Cl)s3)cc2)CO1 (centres unmarked) [DD(220)]
CDK4/cyclin D3
  % Inhib CDK4/D @ 0.1 μM: 30%
  % Inhib CDK4/D @ 1 μM: 26.3%
  % Inhib CDK4/D @ 0.03: −19%

## NC(=O)CS(=O)(=O)c1ccc(Nc2nc(N)c(C(=O)c3c(Cl)cccc3Cl)s2)cc1 [DD(221)]
CDK4/cyclin D3
  % Inhib CDK4/D @ 0.1 μM: 21%
  % Inhib CDK4/D @ 1 μM: 17.6%
  % Inhib CDK4/D @ 0.03: −14%

## CCOC(=O)CCS(=O)(=O)c1ccc(Nc2nc(N)c(C(=O)c3c(Cl)cccc3Cl)s2)cc1 [DD(222)]
CDK4/cyclin D3
  % Inhib CDK4/D @ 0.1 μM: −11%
  % Inhib CDK4/D @ 1 μM: −11%
  % Inhib CDK4/D @ 0.03: −9%

## CC(C)OC(=O)CS(=O)(=O)c1ccc(Nc2nc(N)c(C(=O)c3c(Cl)cccc3Cl)s2)cc1 [DD(223)]
CDK4/cyclin D3
  % Inhib CDK4/D @ 0.1 μM: 35%
  % Inhib CDK4/D @ 1 μM: 11.7%
  % Inhib CDK4/D @ 0.03: −11%

## CC(C)=CCS(=O)(=O)c1ccc(Nc2nc(N)c(C(=O)c3c(Cl)cccc3Cl)s2)cc1 [DD(224)]
CDK4/cyclin D3
  % Inhib CDK4/D @ 0.1 μM: 12%
  % Inhib CDK4/D @ 1 μM: 9.8%
  % Inhib CDK4/D @ 0.03: −2.6%

## CCCS(=O)(=O)c1ccc(Nc2nc(N)c(C(=O)c3c(Cl)cccc3Cl)s2)cc1 [DD(225)]
CDK4/cyclin D3
  % Inhib CDK4/D @ 0.1 μM: 17%
  % Inhib CDK4/D @ 1 μM: 0.6%
  % Inhib CDK4/D @ 0.03: −5%

## COC(=O)CS(=O)(=O)c1ccc(Nc2nc(N)c(C(=O)c3c(Cl)cccc3Cl)s2)cc1 [DD(226)]
CDK4/cyclin D3
  % Inhib CDK4/D @ 0.1 μM: 18%
  % Inhib CDK4/D @ 1 μM: −3.9%
  % Inhib CDK4/D @ 0.03: −6.3%

## CN1CCCC(CS(=O)(=O)c2ccc(Nc3nc(N)c(C(=O)c4c(Cl)cccc4Cl)s3)cc2)C1 (centres unmarked) [DD(227)]
CDK4/cyclin D3
  % Inhib CDK4/D @ 0.1 μM: 16%
  % Inhib CDK4/D @ 1 μM: 15.2%
  % Inhib CDK4/D @ 0.03: −12%

## NC(=O)CCS(=O)(=O)c1ccc(Nc2nc(N)c(C(=O)c3c(Cl)cccc3Cl)s2)cc1 [DD(228)]
CDK4/cyclin D3
  % Inhib CDK4/D @ 0.1 μM: 29%
  % Inhib CDK4/D @ 1 μM: 43%
  % Inhib CDK4/D @ 0.03: 1%

## Nc1nc(Nc2ccc(S(=O)(=O)CCO)cc2)sc1C(=O)c1c(Cl)cccc1Cl [DD(229)]
CDK4/cyclin D3
  % Inhib CDK4/D @ 0.1 μM: 23%
  % Inhib CDK4/D @ 1 μM: 3.5%
  % Inhib CDK4/D @ 0.03: −13%

## CC(C)CCCS(=O)(=O)c1ccc(Nc2nc(N)c(C(=O)c3c(Cl)cccc3Cl)s2)cc1 [DD(230)]
CDK4/cyclin D3
  % Inhib CDK4/D @ 0.1 μM: 20%
  % Inhib CDK4/D @ 1 μM: −1.6%
  % Inhib CDK4/D @ 0.03: −17%

## CC(C)CCOC(=O)CS(=O)(=O)c1ccc(N(C)c2nc(N)c(C(=O)c3c(Cl)cccc3Cl)s2)cc1 [DD(231)]
CDK4/cyclin D3
  inhibition at 0.1 µM: 27%
  inhibition at 1 µM: 33.3%
  inhibition at 0.03 µM: -1.8%

## CN(C)CCS(=O)(=O)c1ccc(Nc2nc(N)c(C(=O)c3c(Cl)cccc3Cl)s2)cc1 [DD(232)]
CDK4/cyclin D3
  inhibition at 0.1 µM: 26%
  inhibition at 1 µM: 17.6%
  inhibition at 0.03 µM: 3.7%

## CCOCCS(=O)(=O)c1ccc(Nc2nc(N)c(C(=O)c3c(Cl)cccc3Cl)s2)cc1 [DD(233)]
CDK4/cyclin D3
  inhibition at 0.1 µM: 11%
  inhibition at 1 µM: -12%
  inhibition at 0.03 µM: 8.4%

## CN(c1ccc(S(=O)(=O)CC(O)CO)cc1)c1nc(N)c(C(=O)c2c(Cl)cccc2Cl)s1 (centres unmarked) [DD(234)]
CDK4/cyclin D3
  inhibition at 0.1 µM: 35%
  inhibition at 1 µM: 26.1%
  inhibition at 0.03 µM: 9.6%

## Nc1nc(Nc2ccc(S(=O)(=O)Cc3ccncc3)cc2)sc1C(=O)c1c(Cl)cccc1Cl [DD(235)]
CDK4/cyclin D3
  inhibition at 0.1 µM: 27%
  inhibition at 1 µM: 6.9%
  inhibition at 0.03 µM: 7.7%

## CCC(CC)CS(=O)(=O)c1ccc(Nc2nc(N)c(C(=O)c3c(Cl)cccc3Cl)s2)cc1 [DD(236)]
CDK4/cyclin D3
  inhibition at 0.1 µM: 30%
  inhibition at 1 µM: 1.7%
  inhibition at 0.03 µM: -0.4%

## CC(=O)OCCS(=O)(=O)c1ccc(Nc2nc(N)c(C(=O)c3c(Cl)cccc3Cl)s2)cc1 [DD(237)]
CDK4/cyclin D3
  % Inhib CDK4/D @ 0.1 μM: 22%
  % Inhib CDK4/D @ 1 μM: 7.3%
  % Inhib CDK4/D @ 0.03: −1.7%

## CC(C)OC(=O)CCS(=O)(=O)c1ccc(N(C)c2nc(N)c(C(=O)c3c(Cl)cccc3Cl)s2)cc1 [DD(238)]
CDK4/cyclin D3
  inhibition at 0.1 µM: 22%
  inhibition at 1 µM: 21.5%
  inhibition at 0.03 µM: -19%

## Nc1nc(Nc2ccc(S(=O)(=O)CCN3CCOCC3)cc2)sc1C(=O)c1c(Cl)cccc1Cl [DD(239)]
CDK4/cyclin D3
  % Inhib CDK4/D @ 0.1 μM: 27%
  % Inhib CDK4/D @ 1 μM: 8%
  % Inhib CDK4/D @ 0.03: 12%

## CC(C)(CO)CS(=O)(=O)c1ccc(Nc2nc(N)c(C(=O)c3c(Cl)cccc3Cl)s2)cc1 [DD(240)]
CDK4/cyclin D3
  % Inhib CDK4/D @ 0.1 μM: 11%
  % Inhib CDK4/D @ 1 μM: 8.7%
  % Inhib CDK4/D @ 0.03: 6.8%

## Nc1nc(Nc2ccc(S(=O)(=O)NCc3ccco3)cc2)sc1C(=O)c1c(F)cccc1F [Example A(22), 4-[4-Amino-5-(2,6-difluoro-benzoyl)-thiazol-2-ylamino]-N-furan-2-ylmethyl-benzenesulfonamide]
CDK4/cyclin D3
  Ki: 22 nM
HCT-116 cells
  IC50: 240 nM
  IC90: 620 nM

## CSc1cccc(Nc2nc(N)c(C(=O)c3c(Cl)cccc3Cl)s2)c1 [R(3), 4-Amino-5-(2,6-dichlorobenzoyl)-2-(3-methylthio-phenylamino)-thiazole]
CDK4/cyclin D3
  Ki: 74 nM

## Nc1nc(Nc2ccc(Sc3ccncc3)cc2)sc1C(=O)c1c(Cl)cccc1Cl [W(1), 4-Amino-5-(2,6-dichloro-benzoyl)-2-[4-(pyridin-4-ylthio)-phenylamino]-thiazole]
CDK4/cyclin D3
  Ki: 89 nM
